Where “and” joins values, the source holds several entries; their conditions need not be identical. Equal entries are not always repeated. Where two headings read alike, the source gives them in different places.
Legend:
CYP 3A4 = CYP 3A4 (Homo sapiens, UniProt P08684); assay: CYP inhibition with probe substrates; type: in vitro ADME
Source text: (§1) The inhibition of cytochrome P450 (CYP) isoforms and a range of cellular transporters (except multidrug and toxin extrusion [MATE] proteins), as well as the induction of CYP isoforms were investigated using previously described methods.

[1] = Quantification of nifurtimox and metabolites in human plasma (LC-HRMS), plasma PK; type: in vivo; settings: fed; for AUC(tlast-∞) (extrapolated proportion): pooled plasma of 6 patients, single oral 120 mg nifurtimox; for AUC, % of total quantified exposure: sum of AUC of nifurtimox and M-1 to M-6 = 100%, single oral 120 mg
Procedure: Plasma samples from timepoints 0, 0.25, 0.5, 0.75, 1, 1.5, 2, 2.5, 3, 4, 6, 8, 12, 15, and 24 h from 6 patients were analyzed. Blood samples were collected into lithium heparinized tubes. Blood cells and plasma were then separated by centrifugation, and the plasma was stored frozen until needed. For the analysis, plasma samples were thawed at room temperature and homogenized by vortex mixing. Equal volumes of plasma from the six patients for each timepoint were combined to a pooled volume of 200 µL. To precipitate protein, a 3-fold volume of acetonitrile/0.5% formic acid (v/v in water) was added to each pooled sample which was thoroughly mixed and then centrifuged at 20,000 g. […] For all analytes, the analytical precision ranged from 0.1% to 8.8%, and the accuracy was 95% to 108%.

[2] = Quantification of nifurtimox and metabolites in human urine (LC-HRMS); type: in vivo; settings: for AE,urine(0–24h), fasted patients: mean of 6 fasted patients with Chagas disease; for AE,urine(0–24h), fasted patients / AE,urine(0–24h), fed patients: single oral 120 mg nifurtimox; for AE,urine(0–24h), fed patients: mean of 6 fed patients with Chagas disease
Procedure: Urine samples were collected from fasted and fed patients pre-dose (0 h) and at four post-dose intervals (0-4, 4-8, 8-12, and 12-24 h) and stored frozen until required. For analysis, urine samples were thawed at room temperature and homogenized by vortex mixing. […] Equal volumes (75 µL) of an internal standard solution of [^2H8]-nifurtimox dissolved in water (10 µg/mL) were added to each urine, calibration, or control sample and mixed thoroughly. Samples from 6 patients were then analyzed using liquid chromatography-high-resolution mass spectrometry (LC-HRMS) with a 1290 Infinity LC system equipped with a diode array detector and an Orbitrap Fusion™ Lumos™ Tribrid™ HRMS (Thermo Fisher Scientific, Bremen, Germany) with a heated electrospray ionization source. For quantification, the LC conditions were as described above for analysis of rat plasma, and the HRMS parameters were: mass range, 120-600 Da in full scan mode and all ion fragmentation in positive ionization mode; resolution, 240,000; ion source voltage, 3500 V; capillary temperature, 300°C; source temperature, 60°C.
The system was calibrated using the relative peak area as a function of concentration, which was obtained by linear regression. Quantification was performed on a mass basis (μg/mL), with the final calculation for the percentage of dose excreted in urine made on a molar basis to account for the substantial differences (up to ~2.5-fold) in the molecular masses of the compounds of interest. The analytical precision for all analytes was in the range of 1.1% to 4.4%, with an accuracy of 94% to 107%. All concentrations in μg/mL were back-calculated to nmol/mL, and these concentrations were then used to calculate a total molar amount based on the urine volume collected during each interval.

OCT2 = molecular target: T1, OCT2 (Homo sapiens, UniProt O15244); assay: Uptake transporter inhibition; type: in vitro ADME; settings: probe substrate 1-methyl-4-phenylpyridinium
T1 sequence (O15244 1-555): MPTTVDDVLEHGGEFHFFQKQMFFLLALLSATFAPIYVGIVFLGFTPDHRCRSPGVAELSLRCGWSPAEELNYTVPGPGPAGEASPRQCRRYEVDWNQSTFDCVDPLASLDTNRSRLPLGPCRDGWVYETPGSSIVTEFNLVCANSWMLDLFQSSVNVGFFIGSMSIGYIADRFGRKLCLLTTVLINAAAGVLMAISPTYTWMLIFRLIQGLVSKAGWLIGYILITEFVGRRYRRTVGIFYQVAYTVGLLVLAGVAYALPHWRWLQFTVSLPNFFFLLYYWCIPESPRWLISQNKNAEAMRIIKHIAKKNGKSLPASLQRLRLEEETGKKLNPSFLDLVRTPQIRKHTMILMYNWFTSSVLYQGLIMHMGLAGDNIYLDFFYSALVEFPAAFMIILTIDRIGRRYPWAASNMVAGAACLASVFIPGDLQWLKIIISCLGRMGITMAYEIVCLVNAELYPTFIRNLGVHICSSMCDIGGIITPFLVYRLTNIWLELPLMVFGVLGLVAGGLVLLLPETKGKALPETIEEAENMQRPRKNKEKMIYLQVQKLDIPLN
Source text: as §1

MATE2K = molecular target: T2, MATE2K (Homo sapiens, UniProt Q86VL8); assay: MATE2K transport assay in overexpressing HEK293 cells; type: in vitro ADME; settings: probe substrate metformin 90 µM
T2 construct: expressed in transfected cells; host or cells: HEK293, stably transfected
T2 sequence (Q86VL8 1-566 isoform Q86VL8-3): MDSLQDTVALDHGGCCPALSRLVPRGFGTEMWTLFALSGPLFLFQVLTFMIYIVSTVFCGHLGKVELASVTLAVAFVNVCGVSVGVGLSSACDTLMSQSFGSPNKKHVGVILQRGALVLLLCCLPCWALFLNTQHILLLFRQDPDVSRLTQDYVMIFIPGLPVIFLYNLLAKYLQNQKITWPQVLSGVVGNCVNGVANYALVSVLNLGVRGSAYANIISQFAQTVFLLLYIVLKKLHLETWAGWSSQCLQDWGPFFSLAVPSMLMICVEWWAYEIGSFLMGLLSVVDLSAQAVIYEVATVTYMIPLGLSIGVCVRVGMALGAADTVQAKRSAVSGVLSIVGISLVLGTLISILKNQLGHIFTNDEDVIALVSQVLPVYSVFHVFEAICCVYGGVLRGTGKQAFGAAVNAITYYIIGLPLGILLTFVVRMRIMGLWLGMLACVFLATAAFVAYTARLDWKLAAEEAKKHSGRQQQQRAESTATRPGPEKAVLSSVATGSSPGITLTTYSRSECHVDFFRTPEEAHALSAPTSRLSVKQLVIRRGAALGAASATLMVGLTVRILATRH
Procedure: as §1
Supplementary Material Current Drug Metabolism, 2023, Vol. 24, No. 8 iii […]
-, not determined; BCRP, breast cancer resistance protein; P-gp, P-glycoprotein; MATE, multidrug and toxin extrusion. aThe highest test concentration of 20 µM was not valid in this assay for technical reasons.
OAT, organic anion transporter; OATP, organic anion transporting polypeptide; OCT, organic cation transporters.
After thawing from frozen storage, aliquots of approximately 3 x 10^6 cells of human embryonic kidney (HEK293) cell line stable overex-pressing MATE1 or MATE2K were transferred to cell culture dishes containing 10 mL of DMEM-medium (supplemented with 10% FBS, 1% penicillin [10.000 U/mL]/streptomycin [10 mg/mL] and hygromycin B [150 µg/mL]) at 37°C. Transporter-transfected and vector-transfected HEK cells were grown on cell culture dishes at 37°C in a humidified 5% CO 2 atmosphere. All cell lines were confirmed free from mycoplasma by routine testing with conventional PCR. Cell cultures were split when they had grown to confluency. For passaging, cells were washed with PBS, exposed to trypsin-EDTA for 5 min at room temperature, collected by centrifugation, resuspended in culture medium and […]
MATE1 and MATE2K Transport Assays
Transporter-transfected and vector-transfected cells were prepared for use in uptake assays by harvesting and plating into 24-well-plates pre-coated with poly-D-lysine hydrobromide at a density of 2 x 10^5 cells/well and then cultured for 3 days in DMEM growth medium (high glucose, 10% FBS, 1% penicillin/streptomycin). For uptake assays, the growth medium was aspirated and each plate well was rinsed twice with HBSS supplemented with 20 mM HEPES, pH 7.4. The intracellular environment was acidified by preincubation in 30 mM NH4Cl in buffer pH 7.4 at 37°C for 30 min. […]

[3] = 3A4 (M), 30-min preincubation, probe substrate midazolam, read-out: Pre- IC50 (+ NADPH)
[4] = 3A4 (M), coincubation, probe substrate midazolam, read-out: Co- IC50
[5] = 3A4 (M), probe substrate midazolam
[6] = 3A4 (T), 30-min preincubation, probe substrate testosterone, read-out: Pre- IC50 (+ NADPH)
[7] = 3A4 (T), coincubation, probe substrate testosterone, read-out: Co- IC50
[8] = 3A4 (T), probe substrate testosterone

Sequence of CYP 3A4 (P08684 whole entry, canonical isoform): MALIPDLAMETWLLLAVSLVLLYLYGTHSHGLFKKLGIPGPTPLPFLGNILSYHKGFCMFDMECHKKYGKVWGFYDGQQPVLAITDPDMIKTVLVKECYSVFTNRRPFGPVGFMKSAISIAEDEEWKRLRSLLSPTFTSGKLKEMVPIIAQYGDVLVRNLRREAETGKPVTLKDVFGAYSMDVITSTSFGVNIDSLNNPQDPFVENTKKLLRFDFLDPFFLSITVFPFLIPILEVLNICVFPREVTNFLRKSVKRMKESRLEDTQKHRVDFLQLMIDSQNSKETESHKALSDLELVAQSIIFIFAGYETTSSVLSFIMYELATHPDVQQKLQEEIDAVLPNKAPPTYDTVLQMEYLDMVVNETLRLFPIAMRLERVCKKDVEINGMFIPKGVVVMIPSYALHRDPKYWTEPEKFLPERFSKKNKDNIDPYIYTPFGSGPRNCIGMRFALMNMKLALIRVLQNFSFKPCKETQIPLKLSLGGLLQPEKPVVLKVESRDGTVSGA

| Structure (SMILES) | IC50 (CYP 3A4; [3]) [M] | IC50 (CYP 3A4; [4]) [M] | TDI (time-dependent inhibition) (CYP 3A4; [5]) | IC50 (CYP 3A4; [6]) [M] | IC50 (CYP 3A4; [7]) [M] | TDI (time-dependent inhibition) (CYP 3A4; [8]) | AUC(tlast-∞) (extrapolated proportion) [1] [%] | AUC, % of total quantified exposure [1] | AE,urine(0–24h), fasted patients [2] | AE,urine(0–24h), fed patients [2] | IC50 (OCT2) [µM] | IC50 (MATE2K) [µM] | unchanged nifurtimox in urine, on average ([2]; fed and fasted patients, single oral 120 mg) |
| --- | --- | --- | --- | --- | --- | --- | --- | --- | --- | --- | --- | --- | --- |
| CC1CS(=O)(=O)CCN1n1cc(SCC(N)C(=O)O)ccc1=O (stereo not shown) [M-4] | > 2e-05 | > 2e-05 | No | > 2e-05 | > 2e-05 | No | 48.4 | 8.9% and 8.9^a % | 5.9 % of dose | 12.3 % of dose | > 5 | > 5 |  |
| CC1CS(=O)(=O)CCN1N (stereo not shown) [M-6] | > 0.0001 | > 0.0001 | No | > 0.0001 | > 0.0001 | No | 21.8 | 69.4% | 13.7 % of dose | 20.8 % of dose | > 30 | > 30 |  |
| CC1CS(=O)(=O)CCN1/N=C/c1ccc([N+](=O)[O-])o1 (stereo not shown) [Nifurtimox, (E)-N-(3-methyl-1,1-dioxo-1,4-thiazinan-4-yl)-1-(5-nitrofuran-2-yl) methanimine, reference compound] | 4.8e-05 to 4.9e-05 | > 5e-05 | No | > 5e-05 | > 5e-05 | No | 0.6 | 16.9% | 0.03 % of dose | 0.07 % of dose | > 20 | > 20 | less than 0.1 % of the administered dose |
